Results taken from US20240034753A1, “THERAPEUTIC PEPTIDES” (COHBAR, INC., priority 2020, published 2024).
Square brackets hold non-standard residues; d marks the D form. Peptide text beside a SMILES is read from it. Nle = CCCC[C@H](N)C(=O)O

Assays:
[1] = test system: 3T3-L1 Mouse Adipocytes; experiment: Free fatty acid levels in cultured mouse adipocytes stimulated with isoproterenol; assay type: cell-based; details: peptide 10 μM, 20-22 hours then 3 hours with 1 nM isoproterenol; relative to isoproterenol treated cells
Procedure: The effect of the peptides on fatty acid metabolism can be assessed using an assay of free fatty acid levels in cultured cells such as mouse adipocytes. Peptides were initially prepared as 10 mM stock in DMSO and used at a final concentration of 10 μM (0.1% DMSO). […] Mouse 3T3-L1 cells purchased from ZenBio were seeded at 3,000 cells per well in 96-well plates in Pre-adipocyte Medium (Zen-Bio) and grown to confluence at 37° C. in a humidified atmosphere of 5% CO2/95% air. Two days after confluence, cells were placed in Adipocyte Differentiation Medium (Zen-Bio) and cultured for three additional days at 37° C. in a humidified atmosphere of 5% CO2/95% air. The culture media was then replaced with Adipocyte Maintenance Medium (Zen-Bio) and the cells maintained for an additional 9-12 days at 37° C. in a humidified atmosphere of 5% CO2/95% air with partial medium replacement every other day. Following 12-15 days of differentiation, test peptides were added at a final concentration of 10 μM in 0.1% DMSO and incubated for 20-22 hours in Adipocyte Maintenance Medium at 37° C. in a humidified atmosphere of 5% CO2/95% air. After 20-22 hours, 1 nM isoproterenol was added to all wells except untreated controls and test peptides were replenished. Insulin at 100 nM was added to control wells. Cells were incubated for 3 hours in Assay Buffer (Zen-Bio) at 37° C. in a humidified atmosphere of 5% CO2/95% air. Free fatty acid concentrations in the media were determined using a Free Fatty Acid Assay kit (Zen-Bio) according to the manufacturer's instructions using a Cytation 3 plate reader at 540 nm (BioTek, Winooski, VT). Absorbance values were corrected for untreated background and expressed relative to isoproterenol treated cells. Treatment with isoproterenol (1 nM) alone was used as the free fatty acid level stimulatory control. The relative standard deviation of the isoproterenol control was <10%. […] Free fatty acid levels for insulin (100 nM) treatment were <5% of the isoproterenol control value.

[2] = test system: C2C12 Mouse Myoblasts; experiment: Glucose utilization (glucose remaining in medium); assay type: cell-based; details: peptide 10 μM, 18-22 hours, relative to 0.1% DMSO treated control cells
Procedure: The effect of the peptides on glucose metabolism can be assessed using an assay of glucose utilization in cultured cells such as mouse myoblasts. Peptides were initially prepared as 10 mM stock in DMSO and used at a final concentration of 10 μM (0.1% DMSO). C2C12 mouse myoblast cell line was purchased from American Type Culture Collection (Manassas, VA). C2C12 cultures were maintained at 37° C. in a humidified atmosphere of 5% CO2/95% air with medium changes every second day. C2C12 cells were grown in DMEM (1 g/L glucose) supplemented with 10% FBS with 100 IU/ml penicillin and 100 μg/ml streptomycin. C2C12 cells were seeded at 7,000 cells per well on 96-well plates and cultured to confluence. Once the cell reached confluence the media was changed to DMEM (1 g/L glucose) supplemented with 2% HS with 100 IU/ml penicillin and 100 μg/ml streptomycin and maintained at 37° C. in a humidified atmosphere of 5% CO2/95% air. 5 days post-induction of differentiation fresh DMEM (1 g/L glucose) supplemented with 2% HS with 100 IU/ml penicillin and 100 μg/ml streptomycin was added to cultures. Cells were maintained at 37° C. in a humidified atmosphere of 5% CO2 and 95% air for 5 hours. After 5 hours test peptides at 10 μM or controls (0.5 mM or 1 mM metformin in 1% DMSO) prepared in fresh differentiation medium were added to cells and the cultures were maintained at 37° C. in a humidified atmosphere of 5% CO2/95% air for 18-22 hours. At the end of the incubation culture media was removed from the cells and the remaining glucose concentration was measured using a Glucose Assay kit (Abcam) according to the manufacturer's instructions, using a Cytation 3 plate reader at 570 nm (BioTek, Winooski, VT). Glucose concentrations in the medium were calculated relative to 0.1% DMSO treated control cells. The relative standard deviation of the result for the 0.1% DMSO treated control was <20%. Metformin was used as a positive control for reduction of glucose levels (increased glucose utilization glucose levels for treatment with metformin (1 mM) treatment were <20% of the 0.1% DMSO treated control value. The results are reported in Table 11.

SMILES	Free Fatty Acid Levels, MEAN %ISO [1] [%]	Glucose Utilization (glucose concentration in medium), Percent of Untreated Control [2] [%]
CC[C@H](C)[C@H](NC(=O)[C@H](CC(C)C)NC(=O)[C@H](CC(C)C)NC(=O)[C@@H](N)CCSC)C(=O)N[C@@H](CC(C)C)C(=O)N[C@H](C(=O)N[C@@H](CC(C)C)C(=O)N[C@H](C(=O)N[C@@H](CC(C)C)C(=O)N[C@H](C)C(=O)O)C(C)C)[C@@H](C)O [compound 3] (H-MLLILTLVL[dA]-OH; N-terminus and C-terminus assumed)	57.7	105.2
CC[C@H](C)[C@H](NC(=O)[C@H](CC(C)C)NC(=O)[C@H](C)NC(=O)[C@@H](N)CCSC)C(=O)N[C@@H](CC(C)C)C(=O)N[C@H](C(=O)N[C@@H](CC(C)C)C(=O)N[C@H](C(=O)N[C@@H](CC(C)C)C(=O)N[C@H](C)C(=O)O)C(C)C)[C@@H](C)O [compound 4] (H-MALILTLVL[dA]-OH; N-terminus and C-terminus assumed)	71.3	117.2
CC[C@H](C)[C@H](NC(=O)[C@H](CC(C)C)NC(=O)[C@H](C)NC(=O)[C@@H](N)CCSC)C(=O)N[C@@H](CC(=O)O)C(=O)N[C@H](C(=O)N[C@@H](CC(C)C)C(=O)N[C@H](C(=O)N[C@@H](CC(C)C)C(=O)N[C@H](C)C(=O)O)C(C)C)[C@@H](C)O [compound 5] (H-MALIDTLVL[dA]-OH; N-terminus and C-terminus assumed)	95.7	128.8
CC[C@H](C)[C@H](NC(=O)[C@@H](NC(=O)CNC(=O)[C@@H](C)NC(=O)[C@@H](N)CCSC)C(C)C)C(=O)N[C@@H](CCCNC(=N)N)C(=O)NCC(=O)N[C@H](C(=O)N[C@@H](CC(C)C)C(=O)N[C@H](C(=O)N[C@@H](CC(C)C)C(=O)O)C(C)C)C(C)C [compound 9] (H-M[dA]GVIRGVLVL-OH; N-terminus and C-terminus assumed)	88.2	128.4
CC[C@H](C)[C@H](NC(=O)[C@@H](NC(=O)CNC(=O)[C@@H](C)NC(=O)[C@@H](N)CCSC)C(C)C)C(=O)N[C@@H](CCCNC(=N)N)C(=O)N[C@@H](C)C(=O)N[C@H](C(=O)N[C@@H](CC(C)C)C(=O)N[C@H](C(=O)N[C@@H](CC(C)C)C(=O)O)C(C)C)C(C)C [compound 10] (H-M[dA]GVIRAVLVL-OH; N-terminus and C-terminus assumed)	96.4	109.1
CC[C@H](C)[C@H](NC(=O)[C@H](Cc1c[nH]c2ccccc12)NC(=O)[C@H](CCC(N)=O)NC(=O)[C@@H](N)CCCNC(=N)N)C(=O)N[C@@H](CC(C)C)C(=O)N[C@@H](Cc1c[nH]cn1)C(=O)N[C@@H](CC(N)=O)C(=O)N[C@H](C)C(=O)NCC(=O)N[C@@H](CCSC)C(=O)N[C@@H](CO)C(=O)N[C@@H](Cc1ccccc1)C(=O)N[C@@H](Cc1ccccc1)C(=O)N[C@@H](CS)C(=O)O [compound 14] (H-RQWILHN[dA]GMSFFC-OH; N-terminus and C-terminus assumed)	70.4	115.7
CSCC[C@H](NC(=O)CNC(=O)[C@@H](C)NC(=O)[C@H](CC(N)=O)NC(=O)[C@H](Cc1c[nH]cn1)NC(=O)[C@H](CC(C)C)NC(=O)[C@H](CCC(=O)O)NC(=O)[C@H](Cc1c[nH]c2ccccc12)NC(=O)[C@H](CCC(N)=O)NC(=O)[C@@H](N)CCCNC(=N)N)C(=O)N[C@@H](CO)C(=O)N[C@@H](C)C(=O)N[C@@H](Cc1ccccc1)C(=O)N[C@@H](CS)C(=O)O [compound 15] (H-RQWELHN[dA]GMSAFC-OH; N-terminus and C-terminus assumed)	54.5	115.1
CSCC[C@H](NC(=O)[C@H](CCCNC(=N)N)NC(=O)[C@H](CCCNC(=N)N)NC(=O)[C@@H](N)CCCNC(=N)N)C(=O)N[C@@H](Cc1ccccc1)C(=O)N[C@@H](CO)C(=O)N[C@@H](CS)C(=O)N[C@@H](Cc1ccc(O)cc1)C(=O)N[C@H](C)C(=O)N[C@@H](Cc1ccc(O)cc1)C(=O)O [compound 19] (H-RRRMFSCY[dA]Y-OH; N-terminus and C-terminus assumed)	64.0	115.7
CCCC[C@H](NC(=O)[C@H](CCCNC(=N)N)NC(=O)[C@H](CCCNC(=N)N)NC(=O)[C@@H](N)CCCNC(=N)N)C(=O)N[C@@H](Cc1ccccc1)C(=O)N[C@@H](CO)C(=O)N[C@@H](CS)C(=O)N[C@@H](Cc1ccc(O)cc1)C(=O)N[C@H](C)C(=O)N[C@@H](Cc1ccc(O)cc1)C(=O)O [compound 20] (H-RRR[Nle]FSCY[dA]Y-OH; N-terminus and C-terminus assumed)	65.6	113.2
CC[C@H](C)[C@H](NC(=O)[C@@H](NC(=O)[C@H](Cc1c[nH]cn1)NC(=O)[C@H](CCCNC(=N)N)NC(=O)[C@H](CC(=O)O)NC(=O)[C@H](Cc1ccc(O)cc1)NC(=O)[C@H](CC(C)C)NC(=O)[C@H](CC(C)C)NC(=O)[C@@H](NC(=O)[C@@H](N)Cc1c[nH]c2ccccc12)C(C)C)C(C)C)C(=O)NCC(=O)NCC(=O)N[C@@H](CO)C(=O)N[C@@H](CC(C)C)C(=O)N[C@@H](CS)C(=O)N[C@H](C(=O)N[C@H](C(=O)N[C@H](C(=O)N[C@@H](CCC(N)=O)C(=O)N[C@H](C(=O)N[C@@H](CCC(=O)O)C(=O)N[C@H](C)C(=O)N[C@@H](Cc1ccc(O)cc1)C(=O)O)C(C)C)C(C)C)C(C)C)C(C)C [compound 23] (H-WVLLYDRHVIGGSLCVVVQVE[dA]Y-OH; N-terminus and C-terminus assumed)	77.1	109.6
CC[C@H](C)[C@H](NC(=O)[C@@H](NC(=O)[C@H](Cc1c[nH]cn1)NC(=O)[C@H](CCCNC(=N)N)NC(=O)[C@H](CC(=O)O)NC(=O)[C@H](Cc1ccc(O)cc1)NC(=O)[C@H](CC(C)C)NC(=O)[C@H](CC(C)C)NC(=O)[C@@H](NC(=O)[C@@H](N)Cc1c[nH]c2ccccc12)C(C)C)C(C)C)C(=O)NCC(=O)NCC(=O)N[C@@H](CO)C(=O)N[C@@H](CC(C)C)C(=O)N[C@@H](CS)C(=O)N[C@H](C(=O)N[C@H](C(=O)N[C@H](C(=O)N[C@@H](CCC(N)=O)C(=O)N[C@H](C(=O)N[C@@H](CCC(=O)O)C(=O)N[C@H](C)C(=O)O)C(C)C)C(C)C)C(C)C)C(C)C [compound 24] (H-WVLLYDRHVIGGSLCVVVQVE[dA]-OH; N-terminus and C-terminus assumed)	93.7	109.1
